We go through 17 molecules from patent US11667636B2, “Modulators of Mas-related G-protein receptor X2 and related products and methods” (Escient Pharmaceuticals, Inc., priority 2020, dated 2023).

Some results are limits rather than exact numbers.

One test has as its target T1, human MRGPRX2 (Homo sapiens, UniProt Q96LB1).
T1 construct: expressed in transfected cells
T1 sequence (Q96LB1 1-330): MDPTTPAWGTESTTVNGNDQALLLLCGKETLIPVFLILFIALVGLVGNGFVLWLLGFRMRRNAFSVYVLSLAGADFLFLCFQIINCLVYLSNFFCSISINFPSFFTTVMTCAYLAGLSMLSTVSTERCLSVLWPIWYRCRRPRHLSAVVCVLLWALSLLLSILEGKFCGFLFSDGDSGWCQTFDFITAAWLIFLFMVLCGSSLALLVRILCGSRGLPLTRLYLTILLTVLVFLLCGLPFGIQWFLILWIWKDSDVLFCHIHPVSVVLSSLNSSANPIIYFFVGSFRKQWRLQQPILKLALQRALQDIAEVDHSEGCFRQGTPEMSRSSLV
The test can be described thus: MRGPRX2 Activity: IP-One HTRF antagonist assay in CHO cells stably expressing human MRGPRX2, versus Cortistatin-14. To be noted: versus 0.3 uM Cortistatin-14 agonist, IP-1 HTRF, read-out: MRGPR2 Antagonist Activity. Type of test: cell-based. The procedure, abridged: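 CHO cells stably expressing human MRGPRX2 were given compound as a 10-point curve (30 uM top, 1:3) with 0.3 μM Cortistatin-14 in LiCl buffer, pH 8. Incubation was 1 hr at 37° C, then 1 hr at room temperature. IP-1 was read by HTRF ratio and fitted to IC50.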

In a further test the test system is Human LAD2 cells. The test can be described thus: Mast Cell Beta-Hexosaminidase Release Assay (Cortistatin-14 induced degranulation). The format is cell-based. To be noted: 500 nM Cortistatin-14, percent beta-hexosaminidase release, read-out: MRGPRX2 Antagonist Activity. The procedure: Human LAD2 cells (NIH) were maintained in an incubator at 37° C. with 5% CO2 and cultured in StemPro-34 serum-free media (Gibco 10639011) supplemented with 2 mM L-glutamine, 100 U/ml penicillin, […] streptomycin and 100 ng/ml SCF (Invitrogen PEP0860), at a concentration of 2-5×10^5 cells/mL, with hemidepletion every 1-2 weeks.
Cells were transferred to SCF-Free medium at 2.5×10^5 cells/mL and kept in an incubator overnight. On the day of the assay, cells were washed twice in Assay Buffer (final concentrations 10 mM HEPES, 137 mM NaCl, 5.6 mM D-glucose, 2.7 mM KCl, 1 mM MgCl, 1.8 mM CalCl2, 0.4 mM Na2HPO4.7H2O, 0.04% BSA, pH=7.4) and plated in a 96-well v-bottom plate at 20,000 cells per well in 80 μL Assay Buffer. Antagonist compounds solubilized at 10 mM in DMSO were diluted in Assay Buffer to 10× final desired concentrations as a 10-point curve (10 μM final top concentration with 1:3 serial dilutions) and 10 μL added per well. Plates were then incubated for 1 hour at 37° C. Agonists were diluted in Assay Buffer to 10× desired concentrations and 10 μL of the appropriate agonist added to each well. The final concentration of Cortistatin-14 (Tocris 3374) used in antagonist assays was 500 nM. Final concentrations of DMSO were kept consistent across the plate. Plates were then incubated in a warm air oven for 30 minutes at 37° C., followed by centrifugation at 4° C. for 5 minutes at 450×g. 50 μL supernatant from each well was then transferred to a 96-well flat bottom plate containing 100 μL substrate solution per well (3.5 mg/mL p-Nitrophenyl-N-acetyl-$-D-glucosaminide (Sigma 487052) in Citrate Buffer containing a final concentration of 40 mM Citric Acid, 20 mM Na2HPO4.7H2O, pH=4.5). To the cell pellets left in the remaining assay buffer, 150 μL 0.1% Triton-X-100 was then added to each well, resuspended by pipetting up and down, and 50 μL cell lysates transferred to a second 96-well flat bottom plate containing 100 μL substrate solution per well. Plates containing transferred supernatant and cell lysates were then incubated in a warm air oven for 90 minutes at 37° C. After incubation, 50 μL of 400 mM Glycine buffer (pH 10.7) was added into each well and the plate was read on a Molecular Devices SpectraMax iD5 plate reader (absorbance at 405 nm with reference filter at 620 nm). After background subtraction, the percentage degranulation (percent beta-hexosaminidase release) was calculated as 100×(supernatant values)/(supernatant+lysate values), followed by analysis using GraphPad Prism software to calculate an IC50 value for each compound.
The activity ranges are denoted as follows: “+++++” denotes antagonist activity <50 nM; “++++” denotes antagonist activity between 51 and 100 nM; “+++” denotes activity between 101 and 500 nM; “++” denotes activity between 501 and 1000 nM; and “+” denotes activity >1000 nM.

In the case of `O=C(N[C@H]1CC[C@@H](Nc2cccc3nc(C(F)F)cn23)CC1)c1ccnc2[nH]ccc12` [2-24], the IC50 at human MRGPRX2 and in the test on Human LAD2 cells was < 50 nM throughout.
Consider `O=C(N[C@H]1CC[C@@H](Nc2cccc3nc(C(F)F)cn23)CC1)c1ccc(NCC(F)F)cc1` [2-61], for which the IC50 in the test on Human LAD2 cells was < 50 nM.
Consider `O=C(N[C@H]1CC[C@@H](Nc2cccc3nc(C(F)(F)F)cn23)CC1)c1cccc2c(F)n[nH]c12` [2-153], for which the IC50 at human MRGPRX2 and with Human LAD2 cells was < 50 nM each time.
In the case of `CS(=O)(=O)Nc1cccc(C(=O)N[C@H]2CC[C@@H](Nc3cccc4sc(C(F)(F)F)cc34)CC2)c1` [2-6], the IC50 is 51 to 100 nM at human MRGPRX2 and < 50 nM with Human LAD2 cells.
The corresponding values for `O=C(N[C@H]1CC[C@@H](Nc2cccc3nc(C(F)(F)F)cn23)CC1)c1cn(C(F)F)nc1C(F)F` [2-228] are < 50 nM and < 50 nM.
The corresponding values for `Cn1cc(C(=O)N[C@H]2CC[C@@H](Nc3cccc4nc(C(F)(F)F)cn34)CC2)c(Cl)n1` [2-137] are < 50 nM and < 50 nM.
Consider `O=C(N[C@H]1CC[C@@H](Nc2cccc3nc(C(F)(F)F)cn23)CC1)c1cccc(NCC(F)F)c1` [2-178], for which the IC50 at human MRGPRX2 and in the test with Human LAD2 cells was < 50 nM in each case.
For the molecule `O=C(N[C@H]1CC[C@@H](Nc2cccc3nc(C(F)F)cn23)CC1)c1ccccc1NCC(F)F` [2-142], the IC50 on human MRGPRX2 and with Human LAD2 cells was < 50 nM in each case.
Regarding `COc1ccc(C(=O)N[C@H]2CC[C@@H](Nc3cccc4nc(C(F)F)cn34)CC2)c(NCC(F)(F)F)c1` [2-28], the IC50 on human MRGPRX2 and in the test with Human LAD2 cells was < 50 nM each time.
Turning to `Cn1cc(C(=O)N[C@H]2CC[C@@H](Nc3cccc4nc(C(F)(F)F)cn34)CC2)c2ccccc21` [2-160], the IC50 on human MRGPRX2 and in the test with Human LAD2 cells was < 50 nM throughout.
Regarding `O=C(N[C@H]1CC[C@@H](Nc2cccc3nc(C(F)F)cn23)CC1)c1ccccc1NCC(F)(F)F` [2-143], the IC50 on human MRGPRX2 and with Human LAD2 cells was < 50 nM throughout.
Consider `O=C(N[C@H]1CC[C@@H](Nc2cccc3nc(C(F)F)cn23)CC1)c1ccccc1NCCF` [2-222], for which the IC50 with Human LAD2 cells was < 50 nM.
For `CNc1ccccc1C(=O)N[C@H]1CC[C@@H](Nc2cccc3nc(C(F)(F)F)cn23)CC1` [2-71], the IC50 with Human LAD2 cells was < 50 nM.
On the same count and under the same terms, then `O=C(N[C@H]1CC[C@@H](Nc2cccc3nc(C(F)(F)F)cn23)CC1)c1cccc2cnsc12` [2-52], with < 50 nM.
On to `O=C(N[C@H]1CC[C@@H](Nc2cccc3sc(C(F)(F)F)cc23)CC1)c1ccc(F)cc1` [Example 1, 4-fluoro-N-((1s,4s)-4-((2-(trifluoromethyl)benzo[b]thiophen-4-yl)amino)cyclohexyl) benzamide], for which the IC50 is 101 to 500 nM on human MRGPRX2 and < 50 nM with Human LAD2 cells.
With `O=C(N[C@H]1CC[C@@H](Nc2cccc3nc(C(F)(F)F)cn23)CC1)c1cccc2cn[nH]c12` [2-10], the IC50 at human MRGPRX2 and with Human LAD2 cells was < 50 nM each time.
`COc1ccc(C(=O)N[C@H]2CC[C@@H](Nc3cccc4nc(C(F)(F)F)cn34)CC2)cc1` [1-1]: the IC50 on human MRGPRX2 and in the test with Human LAD2 cells was < 50 nM each time.
